Reference: US5232684A, “Labelled resiniferatoxin, compositions thereof, and methods for using the same” (priority 1990, dated 1993)

How the values were obtained:
[1] = system: capsaicin receptor (sheep DRG); experiment: [^3H]RTX binding to sheep DRG membranes; details: DRG from sheep
[2] = system: capsaicin receptor (cow DRG); experiment: [^3H]RTX binding to cow DRG membranes; details: DRG from cows
[3] = target: T1, capsaicin receptor (chicken DRG) (Gallus gallus, UniProt Q8QFN9); experiment: [^3H]RTX binding to chicken DRG membranes
T1 construct: homotetramer
T1 sequence (Q8QFN9 1-843): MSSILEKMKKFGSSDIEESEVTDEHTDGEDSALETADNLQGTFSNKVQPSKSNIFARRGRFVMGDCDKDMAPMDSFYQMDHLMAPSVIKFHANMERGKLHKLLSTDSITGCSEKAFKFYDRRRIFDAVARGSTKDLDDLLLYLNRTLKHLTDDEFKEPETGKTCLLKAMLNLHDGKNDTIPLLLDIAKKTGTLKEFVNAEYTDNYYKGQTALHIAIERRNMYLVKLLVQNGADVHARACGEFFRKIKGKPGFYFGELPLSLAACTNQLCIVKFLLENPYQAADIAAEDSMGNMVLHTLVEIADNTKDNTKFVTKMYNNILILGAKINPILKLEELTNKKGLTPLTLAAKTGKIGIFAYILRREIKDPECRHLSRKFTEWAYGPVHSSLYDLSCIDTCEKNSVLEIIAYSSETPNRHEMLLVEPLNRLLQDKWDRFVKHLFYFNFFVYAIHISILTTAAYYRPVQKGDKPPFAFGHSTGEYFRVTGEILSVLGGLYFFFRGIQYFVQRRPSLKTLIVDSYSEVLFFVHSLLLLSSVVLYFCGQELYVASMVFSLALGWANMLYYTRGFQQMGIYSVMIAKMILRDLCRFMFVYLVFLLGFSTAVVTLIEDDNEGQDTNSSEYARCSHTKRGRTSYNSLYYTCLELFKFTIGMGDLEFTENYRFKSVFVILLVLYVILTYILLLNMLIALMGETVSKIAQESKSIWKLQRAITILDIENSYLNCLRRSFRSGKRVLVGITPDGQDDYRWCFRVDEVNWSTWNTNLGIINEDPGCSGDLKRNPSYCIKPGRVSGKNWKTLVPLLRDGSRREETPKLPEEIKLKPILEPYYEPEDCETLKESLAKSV

[4] = system: rat brain preoptic region; experiment: [^3H]RTX binding to rat brain preoptic region
striatum = experiment: [^3H]RTX binding to rat striatum
substantia nigra = experiment: [^3H]RTX binding to rat substantia nigra
Description: Membrane preparations are obtained from the DRG and Gasser ganglia of female Sprague-Dawley rats (250-300 g); animals are sacrificed by decapitation under ether anesthesia, the ganglia removed and collected into ice-cold disrupting buffer (5 mM KCl, 5.8 mM NaCl, 2 mM MgCl2, 12 mM glucose, 137 mM sucrose, 10 mM HEPES, 5 mM DTT, 2 mM EGTA, pH 7.4). After homogenization with the aid of a Polytron tissue homogenizer, samples are filtered over surgical gauze and then washed twice with the same buffer and stored at -70° C. […]
The binding assays are carried out in a volume of 250 ul, containing assay buffer (same as the disrupting buffer but omitting DTT and EGTA and including 0.75 mM CaCl2), 26-30 ug of membrane protein and 0.25 mg/ml bovine serum albumin. […] An aliquot of 50 ul of the mixture is removed to determine total radioactivity. The filters are washed with 100 ml of ice-cold 20 mM Tris-Cl, pH 7 4, containing 0.1 mg/ml bovine serum albumin, and the bound radioactivity is determined by scintillation counting. Non-specific binding is determined in the presence of 100-1000 nM non-radioactive RTX. […]

CD-1 mice = experiment: Induction of hypothermia in CD-1 mice; type: in vivo, mouse; details: 10^-5 g/kg s.c.
Text: [^3 H]RTX (37 Ci/mmol) is synthesized by esterification of resiniferonol 9,13,14-orthophenylacetate (Chemicals for Cancer Research, Inc., Chaska, MN) at the C20 position with [^3 H]homovanillic acid (Chemical Synthesis and Analysis Laboratory, NCI-FCRF, Frederick, MD). The labelled compound is purified on HPLC and cochromatographed with authentic RTX (Chemicals for Cancer Research, Inc., Chaska, MN). The biological activity of [^3 H]RTX is confirmed in 2 assays: induction of hypothermia in CD-1 mice (10^-5 g/kg s.c.) and induction of ear edema in Sprague-Dawley rats (2×10^-7 g/ear).

For C=C(C)[C@]12C[C@@H](C)[C@@]34O[C@](Cc5ccccc5)(O[C@@H]1[C@@H]3C=C(COC(=O)Cc1ccc(O)c(OC)c1)C[C@]1(O)C(=O)C(C)=C[C@@H]41)O2 [[^3 H]RTX, [^3 H]resiniferatoxin], the “specific binding” value [1] was “Specific binding is observed”, the “specific binding” value [2] was “Specific binding is observed” and the “binding in DRG from chickens” value [3] was “not detected”. For the same compound, the “detection of [^3H]RTX binding” value [4] was “very difficult”, the “detection of [^3H]RTX binding” value (striatum) was “very difficult” and the “detection of [^3H]RTX binding” value (substantia nigra) was “very difficult”. For the same compound, the “biological activity: induction of hypothermia” value (CD-1 mice) was “confirmed”.
